For orientation: IC50 means the concentration at which inhibition is half-maximal. Read a high IC50 as a need for much substance. Usually Vmax stands for the rate approached at saturating substrate.

One data set addresses Cytochrome P450 2C9 (Homo sapiens, UniProt P11712). Put plainly: Inhibition of CYP2C9 in human liver microsomes using diclofenac as substrate preincubated for 20 mins with substrate prior to initiation of reaction with NADPH by HPLC analysis. The format is ADME. (In general: Microsomes from liver hold many membrane-bound enzymes, among them those of drug oxidation.)
In data set [1] the target is T1, MDR1 (P-gp, ABCB1) (Homo sapiens, UniProt P08183). As to the kind of experiment: Activity at human MDR1 expressed in MDCK2 cells assessed as basolateral to apical mass balance at 3 uM by liquid scintillation counting analysis in presence of 3 uM P-gp and BCRP inhibitor GF120918. The format is ADME, cell-based, MDCK-II. The following applies: with GF120918 (P-gp and BCRP inhibitor), read-out: Activity.
T1 sequence (P08183 whole entry): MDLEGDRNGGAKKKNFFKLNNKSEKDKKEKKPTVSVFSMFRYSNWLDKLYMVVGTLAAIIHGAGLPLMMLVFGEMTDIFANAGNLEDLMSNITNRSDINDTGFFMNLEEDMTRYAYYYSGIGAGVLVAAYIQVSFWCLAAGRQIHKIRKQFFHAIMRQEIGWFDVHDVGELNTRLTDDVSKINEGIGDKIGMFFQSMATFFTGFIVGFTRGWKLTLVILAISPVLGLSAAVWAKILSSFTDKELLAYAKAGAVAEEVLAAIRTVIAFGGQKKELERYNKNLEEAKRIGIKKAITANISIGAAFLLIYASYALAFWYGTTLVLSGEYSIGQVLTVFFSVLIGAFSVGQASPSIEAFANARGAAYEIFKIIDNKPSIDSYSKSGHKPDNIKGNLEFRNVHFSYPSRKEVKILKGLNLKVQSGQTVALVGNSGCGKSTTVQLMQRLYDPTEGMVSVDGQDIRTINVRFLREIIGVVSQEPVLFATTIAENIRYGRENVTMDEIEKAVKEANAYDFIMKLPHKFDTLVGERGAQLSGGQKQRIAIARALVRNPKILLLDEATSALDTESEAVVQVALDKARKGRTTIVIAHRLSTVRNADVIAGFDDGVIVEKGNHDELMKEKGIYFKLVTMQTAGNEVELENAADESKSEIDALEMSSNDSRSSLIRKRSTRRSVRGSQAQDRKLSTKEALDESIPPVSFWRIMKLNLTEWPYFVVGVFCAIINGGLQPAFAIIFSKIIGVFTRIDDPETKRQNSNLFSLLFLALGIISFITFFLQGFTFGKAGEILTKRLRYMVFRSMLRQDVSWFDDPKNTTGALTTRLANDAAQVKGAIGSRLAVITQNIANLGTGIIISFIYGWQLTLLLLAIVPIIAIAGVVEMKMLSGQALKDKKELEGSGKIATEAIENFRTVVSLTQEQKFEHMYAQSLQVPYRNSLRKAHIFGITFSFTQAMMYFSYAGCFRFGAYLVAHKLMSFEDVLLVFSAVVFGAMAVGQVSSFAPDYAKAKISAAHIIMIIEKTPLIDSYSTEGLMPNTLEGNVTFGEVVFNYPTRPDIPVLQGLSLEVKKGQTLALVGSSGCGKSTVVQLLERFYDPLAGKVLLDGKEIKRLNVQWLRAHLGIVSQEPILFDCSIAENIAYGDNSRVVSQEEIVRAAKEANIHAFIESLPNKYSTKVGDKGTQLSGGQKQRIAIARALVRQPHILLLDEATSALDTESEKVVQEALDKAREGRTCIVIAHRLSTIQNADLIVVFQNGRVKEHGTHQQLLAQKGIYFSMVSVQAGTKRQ

The target in another data set is T2, Cytochrome P450 1A2 (Homo sapiens, UniProt P05177).
T2 sequence (P05177 whole entry): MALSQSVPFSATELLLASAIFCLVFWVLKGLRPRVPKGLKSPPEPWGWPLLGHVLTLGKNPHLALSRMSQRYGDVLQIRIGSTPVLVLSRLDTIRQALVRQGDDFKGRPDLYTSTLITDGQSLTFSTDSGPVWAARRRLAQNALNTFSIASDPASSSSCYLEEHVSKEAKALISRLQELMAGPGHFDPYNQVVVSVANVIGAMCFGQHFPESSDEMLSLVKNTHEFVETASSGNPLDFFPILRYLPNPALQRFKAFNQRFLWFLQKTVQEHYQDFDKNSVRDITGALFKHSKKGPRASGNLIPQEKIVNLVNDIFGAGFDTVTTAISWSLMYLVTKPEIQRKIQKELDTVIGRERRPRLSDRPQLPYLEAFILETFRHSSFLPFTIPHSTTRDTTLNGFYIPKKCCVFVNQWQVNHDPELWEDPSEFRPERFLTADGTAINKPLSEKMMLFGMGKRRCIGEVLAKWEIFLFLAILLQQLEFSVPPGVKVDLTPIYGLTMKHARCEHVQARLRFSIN
As to the kind of experiment: Drug metabolism in supersomes expressing human recombinant CYP1A2 assessed as NADPH-fortified enzyme-mediated metabolite formation at 5 uM after 120 mins by radio HPLC analysis. Format: ADME. Conditions: 2 h.

The target of data set [2] is ATP-dependent translocase ABCB1 (Homo sapiens, UniProt P08183). As to the kind of experiment: Inhibition of human MDR1. The format is ADME.
In data set [3] the target is ATP-binding cassette sub-family C member 2 (Homo sapiens, UniProt Q92887). Put plainly: Inhibition of human MRP2.
Sequence of ATP-binding cassette sub-family C member 2 (Q92887 whole entry): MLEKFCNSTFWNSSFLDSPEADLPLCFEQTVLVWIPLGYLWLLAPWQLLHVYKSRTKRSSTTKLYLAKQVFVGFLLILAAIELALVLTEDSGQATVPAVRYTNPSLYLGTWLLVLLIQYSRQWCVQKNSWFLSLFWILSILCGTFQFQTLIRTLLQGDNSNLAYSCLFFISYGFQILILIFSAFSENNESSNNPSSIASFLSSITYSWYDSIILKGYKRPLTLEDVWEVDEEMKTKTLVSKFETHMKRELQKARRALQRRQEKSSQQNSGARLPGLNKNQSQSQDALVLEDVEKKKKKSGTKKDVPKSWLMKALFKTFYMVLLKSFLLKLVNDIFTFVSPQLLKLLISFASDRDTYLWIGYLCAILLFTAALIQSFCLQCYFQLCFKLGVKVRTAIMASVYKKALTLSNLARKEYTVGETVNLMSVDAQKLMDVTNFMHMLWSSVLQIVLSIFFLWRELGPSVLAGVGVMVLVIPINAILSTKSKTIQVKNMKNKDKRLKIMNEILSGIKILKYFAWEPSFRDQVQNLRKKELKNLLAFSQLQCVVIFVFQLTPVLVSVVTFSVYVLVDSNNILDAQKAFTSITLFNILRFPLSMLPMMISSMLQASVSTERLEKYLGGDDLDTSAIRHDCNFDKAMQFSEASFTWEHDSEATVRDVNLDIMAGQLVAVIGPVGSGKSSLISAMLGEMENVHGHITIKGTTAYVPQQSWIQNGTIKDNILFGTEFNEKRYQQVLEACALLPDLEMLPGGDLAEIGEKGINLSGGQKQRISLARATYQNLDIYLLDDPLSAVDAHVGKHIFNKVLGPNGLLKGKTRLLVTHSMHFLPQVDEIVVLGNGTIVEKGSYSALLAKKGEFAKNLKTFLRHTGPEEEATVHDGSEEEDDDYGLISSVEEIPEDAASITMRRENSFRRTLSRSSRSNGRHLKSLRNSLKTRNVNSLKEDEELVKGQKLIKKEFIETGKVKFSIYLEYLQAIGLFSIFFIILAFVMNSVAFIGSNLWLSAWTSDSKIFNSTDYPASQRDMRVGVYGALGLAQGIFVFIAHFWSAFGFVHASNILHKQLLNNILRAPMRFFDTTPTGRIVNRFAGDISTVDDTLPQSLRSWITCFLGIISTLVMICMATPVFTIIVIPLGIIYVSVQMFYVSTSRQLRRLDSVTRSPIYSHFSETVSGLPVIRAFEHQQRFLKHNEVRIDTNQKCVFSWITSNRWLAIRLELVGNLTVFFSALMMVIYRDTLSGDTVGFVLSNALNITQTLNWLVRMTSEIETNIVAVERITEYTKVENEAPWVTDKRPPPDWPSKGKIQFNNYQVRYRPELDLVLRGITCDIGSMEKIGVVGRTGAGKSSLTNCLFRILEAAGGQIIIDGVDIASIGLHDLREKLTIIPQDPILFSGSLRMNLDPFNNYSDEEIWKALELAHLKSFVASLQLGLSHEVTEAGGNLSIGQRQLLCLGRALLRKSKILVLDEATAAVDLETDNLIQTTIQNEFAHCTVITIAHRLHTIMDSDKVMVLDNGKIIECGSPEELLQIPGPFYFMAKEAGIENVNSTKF
Data set [4] concerns the target T3, Cytochrome P450 2C19 (Homo sapiens, UniProt P33261). As to the kind of experiment: Inhibition of CYP2C19 in human liver microsomes using S-mephenytoin as substrate preincubated for 20 mins with substrate prior to initiation of reaction with NADPH by HPLC analysis. The format is ADME.
Data set [5] addresses T3, Cytochrome P450 2C19. Put plainly: Drug metabolism in supersomes expressing human recombinant CYP2C19 assessed as NADPH-fortified enzyme-mediated metabolite formation at 5 uM after 120 mins by radio HPLC analysis. Format: ADME. The following applies: 2 h.
The target in the next data set is Cytochrome P450 3A4 (Homo sapiens, UniProt P08684). As to the kind of experiment: Drug metabolism in supersomes expressing human recombinant CYP3A4 assessed as NADPH-fortified enzyme-mediated metabolite M3 ((4R,12aS)-N-((3,5-difluorophenyl)(hydroxy)methyl)-7-hydroxy-4-methyl-6,8-dioxo-3,4,6,8,12,12a-hexahydro-2H-[1,3]oxazino[3,2-d]pyrido[1,2-a]pyrazine-9-carboxamide) formation at 5 uM after 120 mins by radio-HPLC analysis in presence of selective CYP3A4 inhibitor azamulin. Format: ADME.
Sequence of Cytochrome P450 3A4 (P08684 whole entry): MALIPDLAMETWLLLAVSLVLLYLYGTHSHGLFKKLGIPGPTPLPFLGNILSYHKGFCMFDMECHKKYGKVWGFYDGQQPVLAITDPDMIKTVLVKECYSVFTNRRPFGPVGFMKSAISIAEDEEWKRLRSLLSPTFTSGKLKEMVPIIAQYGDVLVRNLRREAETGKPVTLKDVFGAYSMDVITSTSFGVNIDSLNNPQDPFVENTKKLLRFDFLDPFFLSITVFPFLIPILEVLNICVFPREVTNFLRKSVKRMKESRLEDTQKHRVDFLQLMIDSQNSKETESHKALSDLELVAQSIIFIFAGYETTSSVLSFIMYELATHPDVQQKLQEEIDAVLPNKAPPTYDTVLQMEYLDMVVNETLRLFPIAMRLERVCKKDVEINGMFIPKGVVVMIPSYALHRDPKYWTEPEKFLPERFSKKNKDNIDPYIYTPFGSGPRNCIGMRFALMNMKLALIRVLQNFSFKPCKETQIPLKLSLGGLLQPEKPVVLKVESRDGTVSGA

Data set [6] concerns the target T1, MDR1 (P-gp, ABCB1). Put plainly: Activity at human MDR1 expressed in MDCK2 cells assessed as basolateral to apical mass balance at 3 uM by liquid scintillation counting analysis. The format is ADME, cell-based, MDCK-II. Conditions: MDCK-MDR1, read-out: Activity.
For another data set, the target named is Cytochrome P450 2A6 (Homo sapiens, UniProt P11509). Put plainly: Metabolism-dependent inhibition of CYP2A6 in human liver microsomes using coumarin as substrate preincubated for 20 mins with NADPH prior to initiation of reaction with probe substrate by HPLC analysis. The format is ADME.
For data set [7], the target named is Solute carrier organic anion transporter family member 1B1 (Homo sapiens, UniProt Q9Y6L6). As to the kind of experiment: Inhibition of human OATP1B1 expressed in CHO cells using [3H]estradiol 17beta-D-glucuronide as substrate by liquid scintillation counting analysis. The format is ADME, cell-based.
Sequence of Solute carrier organic anion transporter family member 1B1 (Q9Y6L6 whole entry): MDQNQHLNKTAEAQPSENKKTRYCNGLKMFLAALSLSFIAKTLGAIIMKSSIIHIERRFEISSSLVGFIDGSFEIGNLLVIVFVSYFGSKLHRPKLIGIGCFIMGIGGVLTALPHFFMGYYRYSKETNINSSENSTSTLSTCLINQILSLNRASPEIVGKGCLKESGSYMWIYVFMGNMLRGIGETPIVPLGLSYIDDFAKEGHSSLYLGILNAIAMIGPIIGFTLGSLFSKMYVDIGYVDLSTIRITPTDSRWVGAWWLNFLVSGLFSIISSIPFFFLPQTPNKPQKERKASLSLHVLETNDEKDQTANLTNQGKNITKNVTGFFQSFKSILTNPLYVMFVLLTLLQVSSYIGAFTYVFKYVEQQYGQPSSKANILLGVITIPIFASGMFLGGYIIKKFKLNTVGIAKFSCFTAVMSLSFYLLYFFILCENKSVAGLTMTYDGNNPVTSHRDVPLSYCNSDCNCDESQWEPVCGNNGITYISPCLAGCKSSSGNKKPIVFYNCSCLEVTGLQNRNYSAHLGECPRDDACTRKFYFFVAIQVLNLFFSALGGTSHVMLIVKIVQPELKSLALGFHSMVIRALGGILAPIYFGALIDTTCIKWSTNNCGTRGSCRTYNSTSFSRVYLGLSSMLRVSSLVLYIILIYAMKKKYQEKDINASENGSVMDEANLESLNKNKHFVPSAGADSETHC
Data set [8] can be described thus: Protein binding in plasma (unknown origin). The following applies: read-out: PPB. Format: ADME, cell-free.
The target in another data set is T4, Cytochrome P450 2C8 (Homo sapiens, UniProt P10632).
T4 sequence (P10632 whole entry): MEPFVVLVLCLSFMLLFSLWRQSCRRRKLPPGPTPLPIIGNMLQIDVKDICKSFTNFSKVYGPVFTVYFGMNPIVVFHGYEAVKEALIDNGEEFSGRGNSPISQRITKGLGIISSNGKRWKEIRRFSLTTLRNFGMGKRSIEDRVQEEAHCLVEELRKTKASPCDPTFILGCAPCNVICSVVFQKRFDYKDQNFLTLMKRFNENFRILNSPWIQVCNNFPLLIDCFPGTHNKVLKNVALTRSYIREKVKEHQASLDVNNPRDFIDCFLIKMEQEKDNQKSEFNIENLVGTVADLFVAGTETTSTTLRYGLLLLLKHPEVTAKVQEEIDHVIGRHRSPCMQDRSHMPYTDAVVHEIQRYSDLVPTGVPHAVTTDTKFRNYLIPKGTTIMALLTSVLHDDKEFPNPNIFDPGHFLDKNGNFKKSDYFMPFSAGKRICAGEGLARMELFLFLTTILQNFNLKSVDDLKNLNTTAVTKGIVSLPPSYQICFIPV
Put plainly: Inhibition of CYP2C8 in human liver microsomes using rosiglitazone as substrate preincubated for 20 mins with substrate prior to initiation of reaction with NADPH by HPLC analysis. The format is ADME.

Data set [9] deals with T5, UDP-glucuronosyltransferase 1A1 (Homo sapiens, UniProt P22309).
T5 sequence (P22309 whole entry): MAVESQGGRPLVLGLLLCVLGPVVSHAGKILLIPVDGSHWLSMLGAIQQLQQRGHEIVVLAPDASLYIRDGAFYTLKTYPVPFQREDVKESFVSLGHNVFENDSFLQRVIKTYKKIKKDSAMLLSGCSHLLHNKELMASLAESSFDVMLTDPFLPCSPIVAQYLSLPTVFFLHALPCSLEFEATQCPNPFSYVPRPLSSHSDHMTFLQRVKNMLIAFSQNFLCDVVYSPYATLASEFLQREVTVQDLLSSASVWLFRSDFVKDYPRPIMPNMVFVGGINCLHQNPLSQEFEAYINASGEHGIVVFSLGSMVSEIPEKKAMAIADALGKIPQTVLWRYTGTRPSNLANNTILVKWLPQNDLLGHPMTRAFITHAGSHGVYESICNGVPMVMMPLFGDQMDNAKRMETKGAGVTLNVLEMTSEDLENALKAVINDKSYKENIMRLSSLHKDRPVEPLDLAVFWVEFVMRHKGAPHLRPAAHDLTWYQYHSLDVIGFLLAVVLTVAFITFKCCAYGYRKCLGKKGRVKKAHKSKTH
Put plainly: Drug metabolism in UDPGA-fortified human liver microsomes assessed as UGT1A1-mediated DTG glucuronide M2 ((2S,3S,4S,5R,6S)-6-((4R,12aS)-9-(2,4-difluorobenzylcarbamoyl)-4-methyl-6,8-dioxo-3,4,6,8,12,12a-hexahydro-2H-[1,3]oxazino[3,2-d]pyrido[1,2-a]pyrazin-7-yloxy)-3,4,5-trihydroxytetrahydro-2H-pyran-2-carboxylic acid) formation after 120 mins measured per mg of protein by radio-HPLC analysis. Format: ADME.

T3 sequence (P33261 whole entry): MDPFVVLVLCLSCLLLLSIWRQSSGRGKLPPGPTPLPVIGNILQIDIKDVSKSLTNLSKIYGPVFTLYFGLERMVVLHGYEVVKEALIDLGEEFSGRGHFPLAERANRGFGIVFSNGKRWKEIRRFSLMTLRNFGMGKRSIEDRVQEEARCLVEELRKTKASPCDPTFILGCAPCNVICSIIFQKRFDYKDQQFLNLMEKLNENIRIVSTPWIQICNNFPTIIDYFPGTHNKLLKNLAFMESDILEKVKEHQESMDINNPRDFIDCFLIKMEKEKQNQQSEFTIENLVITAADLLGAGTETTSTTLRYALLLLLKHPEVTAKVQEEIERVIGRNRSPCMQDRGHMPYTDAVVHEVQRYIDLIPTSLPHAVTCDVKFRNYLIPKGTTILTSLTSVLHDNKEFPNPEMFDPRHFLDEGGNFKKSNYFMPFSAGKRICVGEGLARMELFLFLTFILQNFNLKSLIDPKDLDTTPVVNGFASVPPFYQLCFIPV
Sequence of Cytochrome P450 2C9 (P11712 whole entry): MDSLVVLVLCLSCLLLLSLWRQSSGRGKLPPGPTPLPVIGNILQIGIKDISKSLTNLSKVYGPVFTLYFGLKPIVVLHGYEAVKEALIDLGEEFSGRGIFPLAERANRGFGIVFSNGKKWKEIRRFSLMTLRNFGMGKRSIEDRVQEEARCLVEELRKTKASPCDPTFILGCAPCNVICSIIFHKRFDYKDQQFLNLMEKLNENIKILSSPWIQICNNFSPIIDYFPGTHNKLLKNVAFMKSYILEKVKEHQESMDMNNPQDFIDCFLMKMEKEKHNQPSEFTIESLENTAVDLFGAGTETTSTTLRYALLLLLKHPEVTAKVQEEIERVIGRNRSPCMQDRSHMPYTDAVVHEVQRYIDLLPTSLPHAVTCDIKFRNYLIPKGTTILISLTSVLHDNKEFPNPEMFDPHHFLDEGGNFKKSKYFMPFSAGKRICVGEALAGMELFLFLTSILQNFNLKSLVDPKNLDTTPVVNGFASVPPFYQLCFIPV

As to `C[C@@H]1CCO[C@H]2Cn3cc(C(=O)NCc4ccc(F)cc4F)c(=O)c(O)c3C(=O)N12` [DOLUTEGRAVIR], the IC50 against Cytochrome P450 2C9 was > 100 µM; in data set [2], > 90 µM; in data set [3], > 90 µM; on Cytochrome P450 2C19 [4] it was > 100 µM; against Cytochrome P450 2A6, > 100 µM; in [7] it was > 100 µM. In addition, the half-maximal inhibitory concentration (IC50) against Cytochrome P450 2C8 was > 100 µM. Moreover, the recovery at 3 µM stood at 75% at MDR1 (P-gp, ABCB1) [1] and 84% on MDR1 (P-gp, ABCB1) [6]. Further, the Drug metabolism entry at Cytochrome P450 1A2, at Cytochrome P450 2C19 [5] and on Cytochrome P450 3A4 was “metabolite_not_detected” throughout. Moreover, the fraction unbound in [8] is < 0.01. In addition, the maximum rate (Vmax) in data set [9] worked out at 409 pmol/min.
